Assays:
[1] = target: D(1A) dopamine receptor (Homo sapiens) (UniProt P21728); assay: Binding affinity to dopamine D1 receptor (unknown origin)
[2] = Half life in Rattus norvegicus (rat) plasma; assay type: ADME, cell-free
[3] = target: D(1A) dopamine receptor (Rattus norvegicus) (UniProt P18901)
Chain of D(1A) dopamine receptor (Rattus norvegicus) (P18901 whole entry): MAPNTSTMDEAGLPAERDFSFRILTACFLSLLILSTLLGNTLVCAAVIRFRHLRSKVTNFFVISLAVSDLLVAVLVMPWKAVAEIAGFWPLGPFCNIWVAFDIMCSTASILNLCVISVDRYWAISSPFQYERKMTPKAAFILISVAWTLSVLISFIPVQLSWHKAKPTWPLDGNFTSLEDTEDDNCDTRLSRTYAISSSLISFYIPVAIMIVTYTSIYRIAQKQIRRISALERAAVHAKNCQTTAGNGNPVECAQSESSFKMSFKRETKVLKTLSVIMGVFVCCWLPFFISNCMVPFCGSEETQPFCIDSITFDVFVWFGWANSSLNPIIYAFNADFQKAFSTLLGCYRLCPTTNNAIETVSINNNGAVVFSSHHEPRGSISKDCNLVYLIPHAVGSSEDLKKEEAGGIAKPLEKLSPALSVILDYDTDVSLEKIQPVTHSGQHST
Description: Binding affinity to dopamine D1 receptor in Rattus norvegicus (rat) brain

Chain of D(1A) dopamine receptor (Homo sapiens) (P21728 whole entry): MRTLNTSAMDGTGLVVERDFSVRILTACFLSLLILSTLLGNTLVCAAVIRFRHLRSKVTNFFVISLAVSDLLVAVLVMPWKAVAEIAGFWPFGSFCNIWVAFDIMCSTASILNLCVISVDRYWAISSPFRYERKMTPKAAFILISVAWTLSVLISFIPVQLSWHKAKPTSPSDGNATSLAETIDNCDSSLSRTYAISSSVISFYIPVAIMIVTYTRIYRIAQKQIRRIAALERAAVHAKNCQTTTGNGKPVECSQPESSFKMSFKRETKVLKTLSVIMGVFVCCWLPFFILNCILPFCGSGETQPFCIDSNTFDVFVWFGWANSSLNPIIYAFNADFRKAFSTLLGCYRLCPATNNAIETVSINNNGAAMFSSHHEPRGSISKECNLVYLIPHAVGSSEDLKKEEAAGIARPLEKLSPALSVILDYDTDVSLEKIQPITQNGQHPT

Question: Which K0.5 [1] does the source give for `CCCc1cc2c(s1)CN[C@@H]1CCc3cc(O)c(O)cc3[C@@H]21` (relative stereo) here?
Answer: Its K0.5 is 1 nM.

Question: With `CCCc1cc2c(s1)CN[C@@H]1CCc3cc(OC(C)=O)c(OC(C)=O)cc3[C@@H]21.Cl` (relative stereo) [ADROGOLIDE HYDROCHLORIDE] as the compound, how does the half-life [2] read?
Answer: The half-life was 1 min.

Question: With `NC[C@@H]1O[C@H](c2ccccc2)Cc2c1ccc(O)c2O` (relative stereo) as the compound, how does the K0.5 [1] read?
Answer: Its K0.5 is 1 nM.

Question: With `Oc1cc2c(cc1O)[C@H]1c3ccccc3CN[C@@H]1CC2` as the compound, how does the K0.5 [3] read?
Answer: Its K0.5 is 5 nM.

Question: With `NC[C@@H]1O[C@H](C23CC4CC(CC(C4)C2)C3)Cc2c1ccc(O)c2O` as the compound, how does the K0.5 [1] read?
Answer: Its K0.5 is 1 nM.

— ChEMBL document CHEMBL3044583, “Mechanisms and Issues Relating to the Use of D1-like Dopamine Receptor Agonists for Age-related Illnesses: Parkinson?s Disease and Memory and Cognition” (Med Chem Res, 2004)
